Measured values as given in article PMC9481026 (PLoS ONE, 2022).
≈ marks a conversion by molar mass, not a printed value. Read-outs that look alike come from different tables or passages of the source.

Assays:
RVFV strain MP-12 [1] = assay: microbe, parasite or virus in culture; format: cell-based, Rift Valley fever virus; details: read-out: A549 EC50
Human RNase H1 = target: T1, Human RNase H1 (Homo sapiens, UniProt O60930); assay: biochemical
T1 construct: made in house; host or cells: E. coli
T1 sequence (O60930 1-286): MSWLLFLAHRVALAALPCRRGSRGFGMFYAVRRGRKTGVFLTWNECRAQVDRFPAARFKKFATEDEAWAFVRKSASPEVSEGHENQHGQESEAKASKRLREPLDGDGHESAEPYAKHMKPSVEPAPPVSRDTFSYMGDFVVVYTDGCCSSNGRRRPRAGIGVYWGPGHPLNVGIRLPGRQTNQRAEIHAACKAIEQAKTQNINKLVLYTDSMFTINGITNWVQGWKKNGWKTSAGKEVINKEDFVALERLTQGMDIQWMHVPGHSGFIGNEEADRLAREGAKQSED

RVFV strain MP-12 [2] = assay: microbe, parasite or virus in culture; format: cell-based, Rift Valley fever virus
RVFV MP-12 = assay: microbe, parasite or virus in culture; format: cell-based, Rift Valley fever virus; details: read-out: Estimated EC50
C. neoformans = assay: microbe, parasite or virus in culture; format: cell-based; details: for MIC80: Cryptococcus neoformans, read-out: C. neoformans (MIC80, μM)
ZIKV = assay: microbe, parasite or virus in culture; format: cell-based, Zika virus; details: read-out: ZIKV EC50
LACV = assay: microbe, parasite or virus in culture; format: cell-based, La Crosse virus; details: read-out: LACV EC50
in vitro [3] = details: African green monkey
RVFV ZH501 = assay: microbe, parasite or virus in culture; format: cell-based, Rift Valley fever virus; details: Rift Valley fever virus, Vero, 18 h
E. coli = assay: microbe, parasite or virus in culture; format: cell-based; details: for MIC80: Escherichia coli, read-out: E. coli (MIC80, μM)
Staphylo-coccus spp. = assay: organism not typed; format: cell-based; details: for MIC80: read-out: Staphylo-coccus spp. (MIC80, μM)
in vitro [4] = details: human
[5] = read-out: Human RNase H1 (IC50)
[6] = Rift Valley fever virus, Vero, 24 h

SMILES | EC50 (RVFV strain MP-12 [1]) | IC50 (Human RNase H1; [5]) | EC50 (RVFV strain MP-12 [2]; read-out: Vero EC50) | CC50 (Vero cells) | CC50 (A549 cells) | EC50 (RVFV MP-12) | C. neoformans (MIC80, μM) (C. neoformans) | EC50 (ZIKV) | EC50 (LACV) | CC50 (HepDES19) | CC50 (in vitro [3]; CC50) | EC50 (RVFV strain MP-12 [2]; [6]) | EC50 (RVFV MP-12; Rift Valley fever virus, Vero) | MIC80 (C. neoformans) | other results
CC(=O)c1c(C)cc(O)c(=O)c(O)c1Br [Compound 320] | 90.3 µM | 37 µM | 34 µM | > 120 µM | 154 µM | 2 µM | 49 µM | > 120 µM | > 120 µM | 49.5 µM | – | – | – | – | EC50 (RVFV strain MP-12 [2]; read-out: EC50): 34 µM
Cc1cc(O)c(=O)c(O)cc1C(=O)N1CCCCC1 [Compound 390] | 9.4 µM | 106 µM | 11.9 µM | > 120 µM | 224 µM | 0.1 µM | 11 µM | > 120 µM | > 120 µM | 29.8 µM | – | – | – | – | EC50 (RVFV strain MP-12 [2]; read-out: EC50): 11.9 µM
CC(=Nc1ccc(C(F)(F)F)cc1)c1c(C)cc(=O)n(O)c1O [Compound 517] | 95.8 µM | 135 µM | > 120 µM | > 120 µM | 71.8 µM | 13 µM | 24 µM | > 120 µM | > 120 µM | 91 µM | – | – | – | – | –
NC(=O)c1ncn([C@@H]2O[C@H](CO)[C@@H](O)[C@H]2O)n1 [Ribavirin, reference compound] | – | – | – | – | – | – | – | – | – | – | > 120 µM | 22 µM | 22 µM | – | EC50 (RVFV ZH501): 73.6 µM
Cc1cc(O)c(=O)c(O)cc1C(=O)Nc1ccccc1 [Compound 389] | – | 309 µM | – | > 120 µM | – | 16 µM | 3.5 µM | – | – | 26.5 µM | – | – | – | – | E. coli (MIC80, μM) (E. coli): 44 µM; EC50 (RVFV strain MP-12 [2]; read-out: RVFV (EC50)): 8.8 µM; Staphylo-coccus spp. (MIC80, μM) (Staphylo-coccus spp.): 44 µM
CCCCSc1ccc(SCCCC)c(O)c(=O)c1O [Compound 694] | – | – | – | – | – | – | – | – | – | – | > 120 µM | 3.7 µM | 5.62 µM | 2.3 µM (≈ 0.723 µg/mL) | CC50 (in vitro [4]): 1.8 µM; CC50 (Vero cells; African green monkey): 22.1 µM; MIC80 (Staphylo-coccus spp.): 9 µM (≈ 2.83 µg/mL)
Cc1cc(O)c(=O)c(O)cc1C(=O)NCc1ccccc1 [Compound 388] | – | 166 µM | – | > 120 µM | – | 19 µM | 11 µM | – | – | 19.8 µM | – | – | – | – | E. coli (MIC80, μM) (E. coli): 67 µM; EC50 (RVFV strain MP-12 [2]; read-out: RVFV (EC50)): 9 µM; Staphylo-coccus spp. (MIC80, μM) (Staphylo-coccus spp.): 67 µM
CC[C@H](C)[C@H](NC(=O)OCC1c2ccccc2-c2ccccc21)C(=O)Sc1cccccc1=O [Compound 686] | 7.9 µM | > 500 µM | 6.3 µM | > 120 µM | 67.6 µM | 2.16 µM | 0.85 µM | > 120 µM | 45.4 µM | 42.6 µM | – | – | – | – | Staphylo-coccus spp. (MIC80, μM) (Staphylo-coccus spp.): 30 µM
Cc1cc(O)c(=O)c(O)cc1C(=O)N1CCN(C(c2ccc(F)cc2)c2ccc(F)cc2)CC1 [Compound 1017] | – | – | – | – | – | – | – | – | – | – | > 120 µM | 8 µM | 3.44 µM | 6 µM (≈ 2.8 µg/mL) | CC50 (in vitro [4]): 3.9 µM; IC50 (Human RNase H1): 30 µM; CC50 (Vero cells; African green monkey): 54.7 µM
CC(C)c1ccc(O)c(=O)c(O)c1 [Compound 46, β-thujaplicinol, reference compound] | – | – | – | – | – | – | – | – | – | – | – | – | – | 8 µM (≈ 1.44 µg/mL) | MIC80 (E. coli): 44 µM (≈ 7.93 µg/mL); CC50 (in vitro [3]; CC50 Vero): > 120 µM; EC50 (RVFV strain MP-12 [2]; Rift Valley fever virus, Vero, read-out: RVFV (EC50, μM)): 13.8 µM; MIC80 (Staphylo-coccus spp.): 20 µM (≈ 3.6 µg/mL)
O=c1c(O)cccc(SCc2ccccc2)c1O [Compound 702] | – | – | – | – | – | – | – | – | – | – | > 120 µM | 8.8 µM | 7 µM | 0.55 µM (≈ 0.143 µg/mL) | MIC80 (E. coli): 9 µM (≈ 2.34 µg/mL); CC50 (in vitro [3]; CC50 Vero): 35.6 µM; IC50 (Human RNase H1): 34 µM; MIC80 (Staphylo-coccus spp.): 13 µM (≈ 3.38 µg/mL)
